Measured values: patent publication US20170152239A1, “BENZAMIDE AND HETEROBENZAMIDE COMPOUNDS” (PFIZER INC., priority 2012, published 2017)

molecular target: WT EZH2 (EZH2 4 protein complex: EZH2, EED, SUZ12, RbAp48) (Homo sapiens, UniProt O75530+Q09028+Q15022+Q15910); assay: WT EZH2 nucleosome assay; format: biochemical; details: nucleosome assay, 5 nM EZH2 4-protein complex, 1.5 μM SAM; read-out: WT EZH2 IC50
Experimental: Nucleosome Assay Protocol:
A. Compound preparation • 1. Prepare 10 mM stock solutions in 100% DMSO from solid material • 2. Serial dilute 10 mM compound stocks either 2 or 3-fold in 100% DMSO to generate compounds for 11 point dose response
B. Reagent preparation • 1. Prepare 1× assay buffer containing 100 mM Tris pH 8.5, 4 mM DTT and 0.01% Tween-20 • 2. Dilute purified HeLA oligonucleosomes and recombinant histone H1 (New England Biolabs) in assay buffer to 1.67×. • 3. Dilute EZH2 4 protein complex (EZH2, EED, SUZ12, RbAp48) to 3.5× in assay buffer • 4. Prepare 10×^3H SAM solution in assay buffer using 0.94 μCi/well of radioactive SAM (Perkin Elmer) and sufficient non-labeled SAM (Sigma) for 1.5 μM final concentration. • 5. Dilute TCA to 20% in DI water
C. Enzyme reaction • 1. Final reaction conditions are 5 nM EZH2 4-protein complex, 1.5 μM SAM, 25 μg/mL oligonucleosomes, 50 nM rH1 in a 50 μl reaction volume. • 2. Add 1 μl of diluted compound to the assay plate (96-well V-bottom polypropylene plates) or 1 μl of DMSO for control wells. • 3. Add 30 μl of nucleosomes to the assay plate • 4. Add 14 μl of EZH2 4 protein complex to the assay plate • 5. Add 5 μl of ^3H SAM to start the reaction. • 6. Stop the reaction after 60 minutes with the addition of 100 μl of 20% TCA • 7. Transfer 150 μl of quenched reaction into a prepared filterplate (Millipore #MSIPN4B10) • 8. Apply vacuum to the filterplate to filter the reaction mix through the membrane. • 9. Wash the filterplate with 8×200 μl of PBS, blot dry and dry in an oven for 30 minutes • 10. Add 50 μl of microscint-20 scintillation fluid (Perkin Elmer) to each well, wait 30 minutes and count on a liquid scintillation counter.
D. Data analysis • 1. IC50 values were determined by fitting the data to a 4-parameter IC50 equation using proprietary curve fitting software.
Wild type (WT) EZH2% Effect at 20 μM and IC50 values (μM) generated in WT EZH2 or EZH2PRC2 mutant Y641N nucleosome assays are provided in Table 3 below. A blank entry in the table indicates the data was not generated in that assay.

Chain of WT EZH2 (EZH2 4 protein complex: EZH2, EED, SUZ12, RbAp48) (Q15910 whole entry): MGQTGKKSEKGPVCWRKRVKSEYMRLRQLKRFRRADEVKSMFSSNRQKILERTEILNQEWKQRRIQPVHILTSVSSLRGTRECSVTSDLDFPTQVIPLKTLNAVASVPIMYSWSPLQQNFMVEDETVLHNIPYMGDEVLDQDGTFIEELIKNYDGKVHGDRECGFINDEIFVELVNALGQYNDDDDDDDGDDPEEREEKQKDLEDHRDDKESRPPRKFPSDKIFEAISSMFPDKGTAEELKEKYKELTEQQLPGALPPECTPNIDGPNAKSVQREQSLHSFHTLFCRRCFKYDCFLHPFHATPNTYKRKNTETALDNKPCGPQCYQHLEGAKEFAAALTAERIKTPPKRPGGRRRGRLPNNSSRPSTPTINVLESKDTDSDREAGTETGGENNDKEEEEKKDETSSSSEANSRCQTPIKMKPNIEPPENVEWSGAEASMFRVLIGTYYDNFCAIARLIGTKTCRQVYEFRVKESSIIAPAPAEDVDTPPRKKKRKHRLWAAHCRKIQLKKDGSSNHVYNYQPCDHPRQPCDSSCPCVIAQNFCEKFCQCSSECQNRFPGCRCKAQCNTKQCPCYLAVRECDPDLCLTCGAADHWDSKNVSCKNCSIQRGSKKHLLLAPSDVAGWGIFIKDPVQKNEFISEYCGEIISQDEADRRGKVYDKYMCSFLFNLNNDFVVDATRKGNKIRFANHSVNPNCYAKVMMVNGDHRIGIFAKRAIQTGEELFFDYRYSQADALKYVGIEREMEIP
Chain of WT EZH2 (EZH2 4 protein complex: EZH2, EED, SUZ12, RbAp48) (O75530 whole entry partner): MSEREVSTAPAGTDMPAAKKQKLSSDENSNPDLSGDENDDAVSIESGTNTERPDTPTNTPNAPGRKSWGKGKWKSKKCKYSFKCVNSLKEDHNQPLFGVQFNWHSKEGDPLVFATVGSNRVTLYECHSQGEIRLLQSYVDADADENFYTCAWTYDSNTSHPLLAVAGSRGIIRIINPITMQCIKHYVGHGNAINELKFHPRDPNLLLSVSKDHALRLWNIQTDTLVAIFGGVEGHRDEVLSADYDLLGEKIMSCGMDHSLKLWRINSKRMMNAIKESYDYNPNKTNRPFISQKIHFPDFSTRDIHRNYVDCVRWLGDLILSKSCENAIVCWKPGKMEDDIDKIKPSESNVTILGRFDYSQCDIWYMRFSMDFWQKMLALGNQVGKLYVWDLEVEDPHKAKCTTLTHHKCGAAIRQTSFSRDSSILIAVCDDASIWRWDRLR
Chain of WT EZH2 (EZH2 4 protein complex: EZH2, EED, SUZ12, RbAp48) (Q15022 whole entry partner): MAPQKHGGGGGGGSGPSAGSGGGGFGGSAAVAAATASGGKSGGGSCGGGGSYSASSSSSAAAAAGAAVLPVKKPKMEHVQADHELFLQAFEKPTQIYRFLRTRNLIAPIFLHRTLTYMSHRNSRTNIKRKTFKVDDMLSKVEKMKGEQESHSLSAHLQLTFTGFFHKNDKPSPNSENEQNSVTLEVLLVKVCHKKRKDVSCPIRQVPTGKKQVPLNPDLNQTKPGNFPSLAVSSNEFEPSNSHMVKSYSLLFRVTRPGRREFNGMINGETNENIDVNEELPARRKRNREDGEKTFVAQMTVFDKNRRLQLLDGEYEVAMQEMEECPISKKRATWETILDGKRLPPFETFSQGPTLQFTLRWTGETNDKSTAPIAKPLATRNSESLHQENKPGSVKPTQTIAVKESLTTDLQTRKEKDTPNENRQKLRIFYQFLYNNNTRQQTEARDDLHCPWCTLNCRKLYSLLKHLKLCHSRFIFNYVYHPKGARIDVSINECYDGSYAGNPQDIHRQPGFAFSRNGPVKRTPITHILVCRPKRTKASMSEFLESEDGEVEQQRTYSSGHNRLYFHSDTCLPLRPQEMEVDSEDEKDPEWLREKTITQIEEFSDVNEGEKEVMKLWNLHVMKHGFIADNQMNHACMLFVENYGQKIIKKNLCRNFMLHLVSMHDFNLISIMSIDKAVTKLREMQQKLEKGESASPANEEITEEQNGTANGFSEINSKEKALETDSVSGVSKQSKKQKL
Chain of WT EZH2 (EZH2 4 protein complex: EZH2, EED, SUZ12, RbAp48) (Q09028 whole entry partner): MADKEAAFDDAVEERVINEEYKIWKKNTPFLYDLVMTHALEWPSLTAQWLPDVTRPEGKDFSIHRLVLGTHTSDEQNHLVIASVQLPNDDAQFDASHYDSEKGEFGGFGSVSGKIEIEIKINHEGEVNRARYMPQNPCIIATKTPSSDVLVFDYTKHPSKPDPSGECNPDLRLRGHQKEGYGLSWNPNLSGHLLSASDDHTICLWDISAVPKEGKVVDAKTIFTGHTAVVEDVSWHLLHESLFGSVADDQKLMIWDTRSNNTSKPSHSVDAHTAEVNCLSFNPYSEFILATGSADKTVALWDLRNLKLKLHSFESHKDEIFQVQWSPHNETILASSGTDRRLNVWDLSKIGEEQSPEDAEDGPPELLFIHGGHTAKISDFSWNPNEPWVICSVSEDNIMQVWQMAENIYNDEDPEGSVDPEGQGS

| IC50 [µM] | SMILES |
| --- | --- |
| 6.61 | Cc1cc(C)c(CNC(=O)c2nc(OCc3cncnc3)nc(-c3ccnn3C)c2C)c(=O)[nH]1 [Example 74, N-[(4,6-dimethyl-2-oxo-1,2-dihydropyridin-3-yl)methyl]-5-methyl-6-(1-methyl-1H-pyrazol-5-yl)-2-(pyrimidin-5-ylmethoxy)pyri-midine-4-carboxamide] |
| 6.78 | Cc1cc(C)c(CNC(=O)c2ncnc(N3CCOC[C@@H]3C)c2C)c(=O)[nH]1 [Example 75, N-[(4,6-dimethyl-2-oxo-1,2-dihydropyridin-3-yl)methyl]-5-methyl-6-[(3S)-3-methylmorph-olin-4-yl]pyrimidine-4-carboxamide] |
| 6.94 | Cc1cc(C)c(CNC(=O)c2cccc(-c3c(C#N)cnn3C)c2C)c(=O)[nH]1 [Example 76, 3-(4-cyano-1-methyl-1H-pyrazol-5-yl)-N-[(4,6-dimethyl-2-oxo-1,2-dihydropyridin-3-yl)methyl]-2-methylbenz-amide] |
| 7.31 | Cc1cc(C)c(CNC(=O)c2cc(Cl)cc(-n3cnnc3C)c2C)c(=O)[nH]1 [Example 78, 5-chloro-N-[(4,6-dimethyl-2-oxo-1,2-dihydropyridin-3-yl)methyl]-2-methyl-3-(3-methyl-4H-1,2,4-triazol-4-yl)benzamide] |
| 7.53 | Cc1cc(C)c(CNC(=O)c2nc(-c3cncnc3)nc(-c3ccnn3C)c2C)c(=O)[nH]1 [Example 80, N-[(4,6-dimethyl-2-oxo-1,2-dihydropyridin-3-yl)methyl]-5-methyl-6-(1-methyl-1H pyrazol-5-yl)-2,5′-bipyrimidine-4-carboxamide] |
| 7.74 | Cc1cc(C)c(CNC(=O)c2nc(N3CCOCC3)nc(N3CCC[C@@H]3C)c2C)c(=O)[nH]1 [Example 81, N-[(4,6-dimethyl-2-oxo-1,2-dihydropyridin-3-yl)methyl]-5-methyl-6-[(2S)-2-methylpyrroli-din-1-yl]-2-morpholin-4-ylpyrimidine-4-carboxamide] |
| 7.96 | Cc1cc(C)c(CNC(=O)c2ncnc(N3C4CCC3CC4)c2C)c(=O)[nH]1 [Example 83, 6-(7-azabicyclo[2.2.1]hept-7-yl)-N-[(4,6-dimethyl-2-oxo-1,2-dihydropyridin-3-yl)methyl]-5-methyl-pyrimidine-4-carobxamide] |
| 8.14 | Cc1[nH]c(=O)c(CNC(=O)c2cc(Cl)cc(-c3ccnn3C)c2C)c2c1CCCC2 [Example 84, 5-chloro-2-methyl-N-[(1-methyl-3-oxo-2,3,5,6,7,8-hexahydroiso-quinolin-4-yl)methyl]-3-(1-methyl-1H-pyrazol-5-yl)benzamide] |
| 9.76 | Cc1cc(C)c(CNC(=O)c2ccnc(OC(C)C)c2C)c(=O)[nH]1 [Example 87, N-[(4,6-dimethyl-2-oxo-1,2-dihydropyridin-3-yl)methyl]-2-isopropxy-3-methylisonico-tinamide] |
| 12 | Cc1cc(C)c(CNC(=O)c2nc(OCCO)nc(-c3ccnn3C)c2C)c(=O)[nH]1 [Example 90, N-[(4,6-dimethyl-2-oxo-1,2-dihydropyridin-3-yl)methyl]-2-(2-hydroxyethoxy)-5-methyl-6-(1-methyl-1H-pyrazol-5-yl)pyrimidine-4-carboxamide] |
| 12.1 | Cc1cc(C)c(CNC(=O)c2ccnc(-c3ccnn3C)c2Cl)c(=O)[nH]1 [Example 91, 3-chloro-N-[(4,6-dimethyl-2-oxo-1,2-dihydropyridin-3-yl)methyl]-2-(1-methyl-1H-pyrazol-5-yl)isonicotin-amide] |
| 12.8 | Cc1cc(C)c(CNC(=O)c2nc(N3CCCC3)nc(-c3ccnn3C)c2C)c(=O)[nH]1 [Example 92, N-[(4,6-dimethyl-2-oxo-1,2-dihydropyridin-3-yl)methyl]-5-methyl-6-(1-methyl-1H-pyrazol-5-yl)-2-pyrrolidin-1-ylpyrimidine-4-carboxamide] |
| 14.5 | Cc1cc(C)c(CNC(=O)c2nc(O[C@@H]3CCOC3)nc(-c3ccnn3C)c2C)c(=O)[nH]1 [Example 93, N-[(4,6-dimethyl-2-oxo-1,2-dihydropyridin-3-yl)methyl]-5-methyl-6-(1-methyl-1H-pyrazol-5-yl)-2-[(3R)-tetrahydro-furan-3-yloxy]pyrimi-dine-4-carboxamide] |
